Measured values as given in patent publication US20220024879A1, “COMPOUNDS FOR TREATMENT OF HEPACI VIRUS INFECTION AND METHOD FOR DETERMINING THERAPY OF HEPACI VIRUS INFECTION, IN PARTICULAR, HCV INFECTION” (priority 2018, published 2022).

Assays:
[1] = system: Jc1 and HCV strains Con1 (GT1b), J8 (GT2b), S52 (GT3a), ED43 (GT4a), SA13 (GT5a), HK6a (GT6a) and QC69 (GT7a); assay type: cell-based; settings: Jc1 versus GT1b, 2b, 3a, 4a, 5a, 6a, 7a strains
J8 (GT2b) = assay type: cell-based
JcR2a/J8-E1-R3.2_4 aa = assay type: cell-based, Hepatitis C virus; settings: M290A, W299N, V301T, P310Q
[2] = system: low pH-triggered HCV cell membrane fusion; assay: Fusion at the plasma membrane assay; assay type: cell-based, Hepatitis C virus; settings: 5 nM Con A, pH 5.0 wash 5 minutes
JcR2a = assay: HCV whole life cycle compound screening assay; assay type: cell-based, Hepatitis C virus; settings: Jc1 reporter virus, versus flunarizine
Jc1R2a/J8-E1 chimera = assay type: cell-based; settings: entire E1 replaced
[3] = system: low pH-triggered HCV cell membrane fusion; settings: earlier work of the applicant, data not shown; cited from earlier work
JcR2a-Flun-R [4] = settings: Jc1 passaged in presence of flunarizine; Perin et al.; cited from earlier work
JcR2a-E1 R4 = assay type: cell-based; settings: 313-383
JcR2a/J8-E1_R1 = assay type: cell-based; settings: Aa 192-230
Jc1/J8-E1_R3 = assay type: cell-based; settings: Aa 267-312
JcR2a-Flun-R [5] = assay type: cell-based

Row | Compound | strain-dependent antiviral activity (in words) [1] | resistance of J8 (GT2b) (in words) (J8 (GT2b)) | resistance of JcR2a/J8-E1-R3.2_4 aa, shift of the IC50 versus parental JcR2a (JcR2a/J8-E1-R3.2_4 aa) | antiviral activity, effect of the substituent (SAR, in words) (JcR2a) | also measured
1 | CN1CCN(C(c2ccccc2)c2ccc(Cl)cc2)CC1 (centres unmarked) [chlorcyclizine] | preferentially inhibited Jc1 | pronounced resistance | 6 fold |  | 
2 | COc1ccc(-c2cc(=O)c3c(O)c(O)c(OC)cc3o2)cc1 [BJ486K] |  |  |  |  | inhibition of HCV infection when administered only during the low pH washing step [2]: did not inhibit HCV infection
3 | p-methoxy-flunarizine |  | pronounced resistance |  | beneficial | dose at which cell viability of treated cells was reduced by 50% (Huh-7.5-fluc cells): 9.6 µM
4 | C/C(=C\c1ccccc1)CN1CCN(C(c2ccc(F)cc2)c2ccc(F)cc2)CC1 [entry 20] |  |  |  | not beneficial | 
5 | Fc1ccc(C(c2ccc(F)cc2)N2CCN(C/C=C/c3ccccc3)CC2)cc1 [flunarizine] | preferentially inhibited Jc1 | pronounced resistance | 8 fold |  | susceptibility of chimeric virus with J8-derived E1 (in words) (Jc1R2a/J8-E1 chimera): resistant; antiviral activity when applied only during the 5 minute low pH wash [3]: full antiviral activity; resistance conferred by three mutations in E1 and E2 (JcR2a-Flun-R [4]): ca. 50 fold; susceptibility of chimera with J8 E1 region R4 (in words) (JcR2a-E1 R4): partial resistance; susceptibility of chimera with J8 E1 region R1 (in words) (JcR2a/J8-E1_R1): partial resistance; susceptibility of chimera with J8 E1 region R3 (in words) (Jc1/J8-E1_R3): resistance profile comparable to Jc1 encoding the flunarizine resistance mutations
6 | COc1cc(/C=C/C(=O)CC(=O)/C=C/c2ccc(O)c(OC)c2)ccc1O [curcumin] | similarly active against all tested viruses |  | not |  | inhibition of JcR2a-Flun-R compared with JcR2a (in words) (JcR2a-Flun-R [5]): equally inhibited
